The values below come from patent publication US4155930A, “Ureylene phenylene anionic naphthalenesulfonic acids” (American Cyanamid Company, priority 1978, dated 1979).

Structures are written as SMILES. Where a name gives a salt, the structure may show the parent alone.

The test has as its system shunt pathway. Put plainly: Test Code 036 (C-Shunt inhibitor), lysis of fragile human erythrocytes in autologous serum, cobra venom factor activated. As to conditions: serial two-fold dilution assay; higher well number indicates higher activity; N = negative. Details: key: N=Negative (no activity). Format: biochemical. An excerpt:
An active inhibitor protects C2 from C1 and C4; (ii) Test Code 035 (C3-C9 inhibitor)--This test determines the ability of the late components of human complement (C3-C9) to lyse EAC 142 in the presence of appropriate dilutions of the test compound. An active inhibitor products EAC 142 from lysis by human C3-C9; (iii) Test Code 036 (C-Shunt inhibitor)--In this test human erythrocytes rendered fragile are lysed in autologous serum via the shunt pathway activated by cobra venom factor in the presence of appropriate dilutions of the test compound. Inhibition of the shunt pathway results in failure of lysis; (iv) Forssman Vasculitis Test--Here, the well known complement dependent lesion, Forssman vasculitis, is produced in guinea pigs by intradermal injection of rabbit anti-Forssman antiserum. The lesion is measured in terms of diameter, edema and hemorrhage and the extent to which a combined index of these is inhibited by prior intraperitoneal injection of the test compound at 200 mg/kg is then reported, unless otherwise stated; (v) Forssman Shock Test--Lethal shock is produced in guinea pigs by an i.v. injection of anti-Forssman antiserum and the harmonic mean death time of treated guinea pigs is compared with that of simultaneous controls; (vi) Complement Level Reduction Test--In this test, the above dosed guinea pigs, or others, are bled for serum and the complement level is determined in undiluted serum by the capillary tube method of U.S. Pat. No. 3,876,376 and compared to undosed control guinea pigs; and (vii) Cap 50 Test--Here, appropriate amounts of the test compound are added to a pool of guinea pig serum in vitro, after which the undiluted serum capillary tube assay referred to above is run. The concentration of compound inhibiting 50% is reported.
On to `Cc1ccc(S(=O)(=O)Nc2ccc(S(=O)(=O)[O-])c3cc(S(=O)(=O)[O-])cc(S(=O)(=O)[O-])c23)cc1NS(=O)(=O)c1cccc(NC(=O)Nc2cccc(S(=O)(=O)Nc3cc(S(=O)(=O)Nc4ccc(S(=O)(=O)[O-])c5cc(S(=O)(=O)[O-])cc(S(=O)(=O)[O-])c45)ccc3C)c2)c1.[Na+].[Na+].[Na+].[Na+].[Na+].[Na+]` [8,8'-[Ureylenebis[(m-phenylenesulfonylimino)(4-methyl-3,1-phenylenesulfonyl)imino]]di-1,3,5-naphthalenetrisulfonic acid, hexasodium salt], for which the “Shunt Inhibition 036* Wells” value is listed as “N”.

As to `O=C(Nc1cccc(S(=O)(=O)Nc2cccc(S(=O)(=O)Nc3cc(S(=O)(=O)O)cc4cc(S(=O)(=O)O)cc(S(=O)(=O)O)c34)c2)c1)Nc1cccc(S(=O)(=O)Nc2cccc(S(=O)(=O)Nc3cc(S(=O)(=O)O)cc4cc(S(=O)(=O)O)cc(S(=O)(=O)O)c34)c2)c1` [8,8'-[Ureylenebis[[(1,3-phenylenesulfonylimino)-1,3-phenylenesulfonyl]imino]]di-1,3,6-naphthalenetrisulfonic acid, hexasodium salt], the “Shunt Inhibition 036* Wells” value is on record as “+1 Wells”.

As to `Cc1ccc(NC(=O)Nc2ccc(C)c(S(=O)(=O)Nc3ccc(C)c(S(=O)(=O)Nc4cc(S(=O)(=O)[O-])cc5cc(S(=O)(=O)[O-])cc(S(=O)(=O)[O-])c45)c3)c2)cc1S(=O)(=O)Nc1ccc(C)c(S(=O)(=O)Nc2cc(S(=O)(=O)[O-])cc3cc(S(=O)(=O)[O-])cc(S(=O)(=O)[O-])c23)c1.[Na+].[Na+].[Na+].[Na+].[Na+].[Na+]` [8,8'-[Ureylenebis[[[(6-methyl-3,1-phenylene)sulfonyl]imino]-[[(6-methyl-3,1-phenylene)sulfonyl]imino]]]di-1,3,6-naphthalenetrisulfonic acid, hexasodium salt], the “Shunt Inhibition 036* Wells” value is “N”.
